The target in experiment [1] is T1, Brd4 bromodomain 1 (BRD4(1)) (Homo sapiens, UniProt O60885).
T1 construct: made in house; host or cells: E. coli BL21(DE3)
Kind of experiment: Inhibition of tetra-acetylated histone H4 binding to BET bromodomain (HTRF/FRET). The conditions noted are these: His-tagged bromodomain 200 nM, tetra-acetylated histone H4 peptide, 2 h room temperature. The method, then:
Proteins were cloned and overexpressed with a N-terminal 6× His tag, then purified by nickel affinity followed by size exclusion chromatography. Briefly, E. coli BL21(DE3) cells were transformed with a recombinant expression vector encoding N-terminally Nickel affinity tagged bromodomains from Brd2, Brd3, Brd4. Cell cultures were incubated at 37° C. with shaking to the appropriate density and induced overnight with IPTG. The supernatant of lysed cells was loaded onto Ni-IDA column for purification. Eluted protein was pooled, concentrated and further purified by size exclusion chromatography. Fractions representing monomeric protein were pooled, concentrated, aliquoted, and frozen at −80° C. for use in subsequent experiments.
Binding of tetra-acetylated histone H4 and BET bromodomains was confirmed by a Homogenous Time Resolved Fluorescence Resonance Energy Transfer (HTRF®) method. N-terminally His-tagged bromodomains (200 nM) and biotinylated tetra-acetylated historic H4 peptide (25-50 nM, Millipore) were incubated in the presence of Europium Cryptate-labeled streptavidin (Cisbio Cat. #610SAKLB) and XL665-labeled monoclonal anti-His antibody (Cisbio Cat. #61HISXLB) in a white 96 well microtiter plate (Greiner). For inhibition assays, serially diluted test compound was added to these reactions in a 0.2% final concentration of DMSO. Duplicate wells were used for each concentration tested. Final buffer concentrations were 30 mM HEPES pH 7.4, 30 mM NaCl, 0.3 mM CHAPS, 20 mM phosphate pH 7.0, 320 mM KF, 0.08% BSA. After a 2 h incubation at room temperature, fluorescence was measured at 665 and 620 nm with a SynergyH4 plate reader (Biotek). The binding inhibitory activity was shown by a decrease in 665 nm relative to […] fluorescence. IC50 values were determined from a dose response curve.

In experiment [2] the test system is c-myc in Human AML MV4-11 cells. Kind of experiment: Inhibition of cMYC expression in cancer cell lines (mRNA, real-time PCR). As to conditions: 3 h, cMYC mRNA normalized to Cyclophilin; for IC50: Homo sapiens. Type of experiment: cell-based. How it is done: MV4-11 cells (CRL-9591) were plated at a density of 2.5×10^4 cells per well in 96 well U-bottom plates and treated with increasing concentrations of test compound or DMSO (0.1%) in IMDM media containing 10% FBS and penicillin/streptomycin, and incubated for 3 h at 37° C. Triplicate wells were used for each concentration. Cells were pelleted by centrifugation and harvested using the mRNA Catcher PLUS kit according to manufacturer's instructions. The eluted mRNA isolated was then used in a one-step quantitative real-time PCR reaction, using components of the RNA UltraSense™ One-Step Kit (Life Technologies) together with Applied Biosystems TaqMan® primer-probes for cMYC and Cyclophilin. Real-time PCR plates were run on a ViiA™ 7 real time PCR machine (Applied Biosystems), data was analyzed, normalizing the Ct values for cMYC to an internal control, prior to determining the fold expression of each sample, relative to the control.
For orientation: Quantitative PCR measures a nucleic acid by following its amplification.

Another experiment concerns Human AML MV-4-11 cells. The experiment can be described thus: Inhibition of cell proliferation in cancer cell lines (CellTiter Aqueous One). The conditions noted are these: MV4-11 cells, 72 h; for IC50: Homo sapiens. Type of experiment: cell-based. How it is done: MV4-11 cells (CRL-9591) were plated at a density of 5×10^4 cells per well in 96 well flat bottom plates and treated with increasing concentrations of test compound or DMSO (0.1%) in IMDM media containing 10% FBS and penicillin/streptomycin. Triplicate wells were used for each concentration and a well containing only media was used as a control. Plates were incubated at 37° C., 5% CO2 for 72 h before adding 20 μL of the CellTiter Aqueous One Solution (Promega) to each well and incubated at 37° C., 5% CO2 for an additional 3-4 h. The absorbance was read at 490 nm in a spectrophotometer and the percentage of cell titer relative to DMSO-treated cells was calculated after correcting for background by subtracting the blank well's signal. IC50 values were calculated using the GraphPad Prism software.

The subject of the next experiment is hIL-6 mRNA. Kind of experiment: Inhibition of hIL-6 mRNA transcription in LPS-stimulated U937 cells. As to conditions: Homo sapiens, U-937; PMA-differentiated U937 cells, 1 h pretreatment, LPS 1 ug/mL, 3 h; read-out: IL-6 activity. Type of experiment: cell-based. The method, then: Human leukemic monocyte lymphoma U937 cells (CRL-1593.2) were plated at a density of 3.2×10^4 cells per well in a 96-well plate in 100 μL RPMI-1640 containing 10% FBS and penicillin/streptomycin, and differentiated into macrophages for 3 days in 60 ng/mL PMA ([…]) at 37° C. in 5% CO2 prior to the addition of compound. The cells were pretreated for 1 h with increasing concentrations of test compound in 0.1% DMSO prior to stimulation with 1 ug/mL lipopolysaccharide from Escherichia coli. Triplicate wells were used for each concentration. The cells were incubated at 37° C., 5% CO2 for 3 h before the cells were harvested. At time of harvest, media was removed and cells were rinsed in 200 μL PBS. Cells were harvested using the mRNA Catcher PLUS kit according to manufacturer's instructions. The eluted mRNA was then used in a one-step quantitative real-time PCR reaction using components of the RNA UltraSense™ One-Step Kit (Life Technologies) together with Applied Biosystems TaqMan® primer-probes for hIL-6 and Cyclophilin. Real-time PCR plates were run on a ViiA™ 7 real time PCR machine (Applied Biosystems), data was analyzed, normalizing the Ct values for hIL-6 to an internal control, prior to determining the fold expression of each sample, relative to the control.

Structures are written as SMILES.

Turning to `Cc1noc(C)c1-c1c[nH]c(=O)c(NCc2ncccc2Cl)c1` [Example 37, 3-(((3-chloropyridin-2-yl)methyl)amino)-5-(3,5-dimethylisoxazol-4-yl)pyridin-2(1H)-one], the IC50 (in experiment [1]; in the experiment with hIL-6 mRNA) was 0.3 to 3 µM each time. The c-myc activity entry in experiment [2] is “Not Active”. Moreover, in the experiment on Human AML MV-4-11 cells, the “Cell Proliferation activity” value is “Not Active”.
For the compound `Cc1noc(C)c1-c1c[nH]c(=O)c(NCc2ccc(C#N)s2)c1` [Example 36, 5-(((5-(3,5-dimethylisoxazol-4-yl)-2-oxo-1,2-dihydropyridin-3-yl)amino)methyl)thiophene-2-carbonitrile], the IC50 in experiment [1] was not above 0.3 µM; in experiment [2] it was 3 to 30 µM; in the experiment on Human AML MV-4-11 cells it was 3 to 30 µM; in the experiment with hIL-6 mRNA it was 0.3 to 3 µM.
Consider `Cc1noc(C)c1-c1c[nH]c(=O)c(NCc2ccncc2)c1` [Example 11, 5-(3,5-dimethylisoxazol-4-yl)-3-((pyridin-4-ylmethyl)amino)pyridin-2(1H)-one], for which the IC50 in experiment [1] fell in the range of 0.3 to 3 µM; in experiment [2], 3 to 30 µM; in the experiment on Human AML MV-4-11 cells it was 3 to 30 µM; in the experiment with hIL-6 mRNA, 0.3 to 3 µM.
`Cc1noc(C)c1-c1c[nH]c(=O)c(OCc2ccc(F)cc2)c1` [Example 27, 5-(3,5-dimethylisoxazol-4-yl)-3-((4-fluorobenzyl)oxy)pyridin-2(1H)-one]: the IC50 lay in the range of 0.3 to 3 µM in experiment [1], 0.3 to 3 µM in experiment [2], 3 to 30 µM with Human AML MV-4-11 cells and 0.3 to 3 µM in the experiment on hIL-6 mRNA.
Consider `Cc1noc(C)c1-c1c[nH]c(=O)c(NCc2ccc(C#N)cc2)c1` [Example 9, 4-(((5-(3,5-dimethylisoxazol-4-yl)-2-oxo-1,2-dihydropyridin-3-yl)amino)methyl)benzonitrile], for which the IC50 in experiment [1] is not above 0.3 µM; in experiment [2], 0.3 to 3 µM; in the experiment with Human AML MV-4-11 cells, 3 to 30 µM; in the experiment with hIL-6 mRNA, 0.3 to 3 µM.
Turning to `Cc1noc(C)c1-c1c[nH]c(=O)c(NCc2ccsc2)c1` [Example 13, 5-(3,5-dimethylisoxazol-4-yl)-3-((thiophen-3-ylmethyl)amino)pyridin-2(1H)-one], the IC50 in experiment [1] is not above 0.3 µM; in experiment [2], 0.3 to 3 µM; in the experiment on Human AML MV-4-11 cells, 0.3 to 3 µM; in the experiment on hIL-6 mRNA, 0.3 to 3 µM.
Turning to `Cc1noc(C)c1-c1c[nH]c(=O)c(N[C@H](C)c2ccccn2)c1` (single isomer, unassigned) [Example 42], the figures for the IC50 (in experiment [1]; in the experiment on Human AML MV-4-11 cells; in the experiment on hIL-6 mRNA) were not above 0.3 µM, 0.3 to 3 µM and 0.3 to 3 µM, respectively. Moreover, the c-myc activity entry in experiment [2] is recorded as “Not Active”.
`Cc1noc(C)c1-c1c[nH]c(=O)c(OCc2ccccc2)c1` [Example 14, 3-(benzyloxy)-5-(3,5-dimethylisoxazol-4-yl)pyridin-2(1H)-one]: the IC50 in experiment [1] lay within 0.3 to 3 µM; in experiment [2] it was 3 to 30 µM; in the experiment with Human AML MV-4-11 cells, 3 to 30 µM; in the experiment on hIL-6 mRNA it was 0.3 to 3 µM.
Consider `Cc1noc(C)c1-c1c[nH]c(=O)c(NCc2ccc(I)cc2)c1` [Example 24, 5-(3,5-dimethylisoxazol-4-yl)-3-((4-iodobenzyl)amino)pyridin-2(1H)-one], for which the IC50 is not above 0.3 µM in experiment [1] and 3 to 30 µM in the experiment with hIL-6 mRNA. The c-myc activity entry in experiment [2] is on record as “Not Active”. The “Cell Proliferation activity” value in the experiment with Human AML MV-4-11 cells was “Not Active”.
Turning to `Cc1noc(C)c1-c1c[nH]c(=O)c(N[C@@H](C)c2ccccn2)c1` (single isomer, unassigned) [Example 41], the IC50 in experiment [1] was not above 0.3 µM; in experiment [2], 3 to 30 µM; with Human AML MV-4-11 cells, 3 to 30 µM; in the experiment on hIL-6 mRNA it was 0.3 to 3 µM.
In the case of `Cc1noc(C)c1-c1c[nH]c(=O)c(NCc2ccc(C(F)(F)F)cc2)c1` [Example 10, 5-(3,5-dimethylisoxazol-4-yl)-3-((4-(trifluoromethyl)benzyl)amino)pyridin-2(1H)-one], the IC50 lay within 0.3 to 3 µM in experiment [1], 3 to 30 µM in experiment [2], 3 to 30 µM with Human AML MV-4-11 cells and 0.3 to 3 µM in the experiment on hIL-6 mRNA.
As for `Cc1ncccc1Oc1cc(-c2c(C)noc2C)cnc1O` [Example 43, 5-(3,5-dimethylisoxazol-4-yl)-3-((2-methylpyridin-3-yl)oxy)pyridin-2-ol], the IC50 in experiment [1] was in the range of 0.3 to 3 µM; in the experiment on hIL-6 mRNA, 3 to 30 µM. Also, the c-myc activity result in experiment [2] is recorded as “Not Active”. Besides, in the experiment on Human AML MV-4-11 cells, the “Cell Proliferation activity” value was “Not Active”.
Regarding `Cc1noc(C)c1-c1c[nH]c(=O)c(Nc2cccc(F)c2)c1` [Example 3, 5-(3,5-dimethylisoxazol-4-yl)-3-((3-fluorophenyl)amino)pyridin-2(1H)-one], the IC50 in experiment [1] is 0.3 to 3 µM; in experiment [2], 0.3 to 3 µM; in the experiment with Human AML MV-4-11 cells it was 3 to 30 µM; in the experiment on hIL-6 mRNA, 0.3 to 3 µM.
Regarding `Cc1noc(C)c1-c1c[nH]c(=O)c(NCc2ccc3ccccc3c2)c1` [Example 33, 5-(3,5-dimethylisoxazol-4-yl)-3-((naphthalen-2-ylmethyl)amino)pyridin-2(1H)-one], the IC50 fell in the range of 0.3 to 3 µM in experiment [1], 3 to 30 µM in experiment [2], 3 to 30 µM in the experiment with Human AML MV-4-11 cells and 0.3 to 3 µM in the experiment on hIL-6 mRNA.
Consider `Cc1noc(C)c1-c1c[nH]c(=O)c(NCc2ccc3ccccc3n2)c1` [Example 35, 5-(3,5-dimethylisoxazol-4-yl)-3-((quinolin-2-ylmethyl)amino)pyridin-2(1H)-one], for which the IC50 is not above 0.3 µM in experiment [1], 3 to 30 µM in experiment [2], 0.3 to 3 µM with Human AML MV-4-11 cells and 0.3 to 3 µM with hIL-6 mRNA.
For `Cc1noc(C)c1-c1c[nH]c(=O)c(NCc2ccc(F)cc2)c1` [Example 21, 5-(3,5-dimethylisoxazol-4-yl)-3-((4-fluorobenzyl)amino)pyridin-2(1H)-one], the IC50 in experiment [1] is not above 0.3 µM; in experiment [2], 0.3 to 3 µM; with Human AML MV-4-11 cells, 0.3 to 3 µM; in the experiment on hIL-6 mRNA, 0.3 to 3 µM.
